Where “and” joins values, the source holds several entries; their conditions need not be identical. Identical values can stand only once. Marks after values point to notes of the source that are not given here.
Columns and labels:
Renca tumor cells [1] = experiment: Renca syngeneic xenograft study: primary tumor volume (groups 1-7); assay type: in vivo, female BALB/c mice; settings: IV docetaxel Day 1 (10 mg/kg) and Day 11 (5 mg/kg)
Protocol: (§1) The schedule in Table 39 was followed.
All treatments were initiated on the same day.
(§2) Cell Injection Volume: 0.1 mL/mouse. Age at Start Date: 8 to 12 weeks. […] Body Weight: 5/2 then tiwk to end. Caliper Measurement: tiwk to end. Double caliper measurements were performed for Groups 8-10. […] The group was not euthanized and recovery was allowed.
(§3) Endpoints: Groups 1-7: Endpoint TGI. Animals were monitored as a group.

[2] = tested on: immune cells in tumor tissue; experiment: Renca syngeneic xenograft study: flow cytometry of tumor tissue; assay type: in vivo, female BALB/c mice; settings: IV docetaxel, individual animal
Protocol: Organ Collection: Tumor (divide into 2 parts). […] Sent to laboratory for IHC staining. Part 2: preservation—processed to single cell suspension, shipping condition—4° C. (wet ice). Retained at CRL-NC for flow cytometry. See Flow panel in Table 40 below. Tumor preservation for early euthanasia in Groups 2-10: Excised tumor and surrounding area from the mammary fat pad area (cranial) to just past tumor (caudal). The region included the inguinal lymph node. Sectioned this sample every 4 mm from the cranial to caudal end and enclosed in separate cassettes labeled in order.
(§4) Peripheral blood and tumor tissue were collected for analysis via flow cytometry. Cell types analyzed included T-Cells: CD4+, CD8+ (Tumor Suppression); Treg (Tumor Promotion); M1 Macrophages (Tumor Suppression); M2 Macrophages (Tumor Promotion); and M2 Macrophages (Tumor Promotion).

[3] = UM-UC-3 mouse xenograft study: body weight and peripheral neuropathy; assay type: in vivo, Hsd:Athymic Nude-Foxn1nu nude mice; settings: Docetaxel IV 3 cycles
Protocol: (§5) Tumor volume was determined with calipers. […] Animals were weighed 2×/week.

[4] = tested on: UM-UC-3 bladder cancer cell line; experiment: Human bladder cancer (UM-UC-3) mouse xenograft study: tumor volume; assay type: in vivo, Hsd:Athymic Nude-Foxn1nu nude mice; settings: Docetaxel IV 30 mg/kg, 3 cycles
Protocol: as §5
At day 18 after tumor implant, when average tumor size was between 50-325 mm^3, animals were sorted into five groups with equal average tumor sizes and were treated as shown in Table 25 below.
The second treatments (2nd cycle) occurred 7 days following first treatment (1st cycle) and third treatments (3rd cycle) occurred 14 days following the first treatment. The docetaxel solution IV was administered via the tail vein.
Vehicle (Control): Diluted 1 ml of the 1% Polysorbate 80/8% Ethanol in normal saline (0.9% Sodium Chloride for Injection) reconstitution solution with 1.5 mL of normal saline (0.9% Sodium Chloride for Injection, USP). […] Vigorously hand shook the vial with inversions for 1 minute. […] Allowed the suspension to sit undisturbed for at least 5 minutes to reduce entrapped air and foam. […] Vortexed to mix.

[5] = tested on: UM-UC-3 bladder cancer cell line; experiment: UM-UC-3 mouse xenograft study: immunohistochemistry (F4/80, CD68 macrophage infiltrate, CD45R); assay type: in vivo, Hsd:Athymic Nude-Foxn1nu nude mice; settings: IV Docetaxel 3 cycles
[6] = tested on: human renal cell adenocarcinoma (786-O cell line); experiment: Rat 786-O xenograft: H&E and immunohistochemical evaluation (viable carcinoma size, necrosis, CD11b/CD68 infiltrate, TLS); assay type: in vivo, Sprague-Dawley Rag2; Il2rg null (SRG) rat
Source text: Tissue Collection: Primary Tumor (Inoculation site)—A final tumor measurement was taken prior to excision. Tumors were weighed after excision. Approximately ½ of each tumor (based on visual assessment) was flash frozen in 2-methylbutane on dry ice, the tumor piece was weighed when possible before it is flash frozen. The remaining was fixed in 10% neutral buffered formalin. Tumors were also collected from animals not reaching enrollment volume. Secondary Tumors—Any organ with visible tumors were collected and fixed in 10% neutral buffered formalin. Formalin fixed tissues were stored at room temperature. Frozen tissues were stored at −80° C. All tissue was stored for up to 3 months. Pictures of all tumors; primary and secondary if present, were taken.
Microscopic Examination: Tissues fixed with 10% NBF were embedded in paraffin. Each tumor was cut into 2-3 pieces and embedded and sectioned together.

[7] = tested on: immune cells in the blood; experiment: Renca syngeneic xenograft study: flow cytometry of blood (CD45+, CD4+, CD8+, Treg, MDSC, M1, M2); assay type: in vivo, female BALB/c mice; settings: IV Docetaxel, individual animals
Protocol: Blood Collection: Collected full volume blood by terminal cardiac puncture under isoflurane anesthesia. Processed blood for: Whole Blood: anti-coagulant—K2EDTA, preservation—Cooled 4° C., shipping condition—4° C. (wet ice). Retained at CRL-NC for flow cytometry. See Flow panel in Table 40 below.
as §4

Renca tumor cells [8] = experiment: Renca syngeneic xenograft study: untreated secondary tumor growth (groups 8-10); assay type: in vivo, female BALB/c mice; settings: IV docetaxel; second Renca injection day 15
Protocol: as §1, §2, §3

[9] = tested on: UM-UC-3 bladder cancer cell line; experiment: UM-UC-3 mouse xenograft study: H&E histopathology (viable carcinoma size on slide, necrosis, TLS); assay type: in vivo, Hsd:Athymic Nude-Foxn1nu nude mice
[10] = IV Docetaxel 3 cycles, 2 animals

With `CC(=O)O[C@@]12CO[C@@H]1C[C@H](O)[C@@]1(C)C(=O)[C@H](O)C3=C(C)[C@@H](OC(=O)[C@H](O)[C@@H](NC(=O)OC(C)(C)C)c4ccccc4)C[C@@](O)([C@@H](OC(=O)c4ccccc4)[C@H]21)C3(C)C` [Docetaxel, docetaxel] the “tumor volume compared to vehicle” value (Renca tumor cells [1]) was “No difference in tumor volume”, the “CD8 (% of CD45)” value [2] was 0.75% and 0.5% and 0.28% and 0.31% (2×) and 0.061% and 0.32% and 0.45% and 0.81% and 0.33% and the “CD8 Count” value [2] was 33 and 40 and 26 and 9 and 36 and 270. For the same compound, the “CD45 (% of Live)” value [2] was 73%, the “Conv CD4 (% of CD45)” value [2] was 0.44% and 0.16% and 0.58% and 0.62% and 0.59% and the “Conv CD4 Count” value [2] was 54 and 93 and 140 and 23 and 50 and 670. The “M1 Mac Count” value [2] was 460 and 700, the “M2 Mac (% of CD45)” value [2] was 28% and the “MBSC (% of CD45)” value [2] was 25.1% and 32.8% and 42.5% and 44% and 83.3% and 20% and 70.4% and 37.3% and 10.4%. The “Treg (% of CD45)” value [2] was 0.55% and 0.32% and 0.62% and 0.16% and 0.54% and 0.21% and 0.42% and 0.6%, the “Treg Count” value [2] was 69 and 44 and 30 and 23 and 17 and 520 and the “initial animal weight loss compared with nDoce IT 1, 2, 3 cycles” value [3] was “generally greater”. The “peripheral neuropathy compared with nDoce IT 3 cycles” value [3] was “greater signs of peripheral neuropathy”, the “efficacy in relation to initial tumor size” value [4] was “somewhat effective at treating small tumors, but not very effective in treating large tumors” and the “tumor volumes over the study (61 days), after an initial decrease” value [4] was “subsequently increased”. For the same compound, the “F4/80 immunohistochemistry observation (FIG. 87)” value [5] was “Very little tumor cell destruction and few scattered mononuclear immune cells among vast number of viable tumor cells”, the “Macrophage infiltrate density: Mild (animals)” value ([5]; 2 animals, H&E and CD68) was 2 and the “histology compared with the vehicle control (FIG. 93)” value ([6]; Docetaxel (IV) 3 cycles, female rat) was “no difference”. The “Number of animals with residual viable carcinoma >10 mm” value ([6]; IV docetaxel, 2 animals, maximum dimension on slide) was 2, the “residual viable carcinoma nodules, size on the slide” value ([6]; both IV docetaxel animals (3 cycles)) was “greater than 10 mm” and the “CD45 (% of Live)” value [7] was 97 % of Live. For the same compound, the “CD45 Count” value [7] was 1200000, the “MDSC Count” value [7] was 1000000 and the “Treg Count” value [7] was 1300 and 870. The “growth rate of the secondary Renca tumors” value (Renca tumor cells [8]) was “did not reduce the growth rate of the secondary Renca tumors”, the “General histological observations (H&E)” value ([9]; Docetaxel Solution IV 3 cycles) was “many viable appearing tumor masses with some macrophage and occasional lymphocytic response along with some tumor necrosis” and the “Maximum size of viable invasive carcinoma on the slide >10 mm (animals)” value [9, 10] was 2*. For the same compound, the “Number of animals with 11-50% of tumor showing necrosis” value [9, 10] was 1, the “Number of animals with 50-90% of tumor showing necrosis” value [9, 10] was 1 and the “Maximum tumor size on slide (mm)” value ([9]; IV Docetaxel 3 cycles, individual animals B1, B3) was 15 mm and 11 mm. For the same compound, the “maximum dimension of tumor mass on the slide, individual cases” value ([9]; Intravenous Docetaxel 3 cycles, 2 cases) was 11 mm and 15 mm and the “geographic tumor cell necrosis, share of the tumor area, individual cases” value ([9]; Intravenous Docetaxel 3 cycles, cases B1, B3) was 11-50% and 50-90%.
For `CC(=O)O[C@@]12CO[C@@H]1C[C@H](O)[C@@]1(C)C(=O)[C@H](O)C3=C(C)[C@@H](OC(=O)[C@H](O)[C@@H](NC(=O)OC(C)(C)C)c4ccccc4)C[C@@](O)([C@@H](OC(=O)c4ccccc4)[C@H]21)C3(C)C` [Doce], the “Number of animals with <5% of tissue showing necrosis” value ([6]; IV Doce, 2 animals) was 2 and the “Number of animals with Mild lymphohistiocytic infiltrate density” value ([6]; IV Doce, 2 animals, H/E and CD11b staining, semi quantitative) was 2.

Reference: patent US20210214683A1, “METHODS FOR ISOLATING TUMOR-SPECIFIC IMMUNE CELLS FROM A SUBJECT FOR ADOPTIVE CELL THERAPY AND CANCER VACCINES” (CRITITECH, INC., priority 2018, published 2021)
